The source of these data is ChEMBL document CHEMBL1134752 (Bioorg Med Chem Lett, 2001).

The term half-life denotes the time needed for the level to fall by half in the phase considered. A word on the IC50: it is the concentration needed to halve the response being measured. Higher therefore signals weaker potency in that assay.

Data set [1] in a line: Half-life in human. In kind it is ADME, organism-based. Particulars: in vivo.
For data set [2], the target named is Prostaglandin G/H synthase 1 (Homo sapiens, UniProt P23219). Nature of the data set: In vitro inhibition of Prostaglandin G/H synthase 1 in human whole blood assay. In kind it is tissue-based.
Data set [3] concerns the target T1, Prostaglandin G/H synthase 2 (Homo sapiens, UniProt P35354).
T1 sequence (P35354 whole entry): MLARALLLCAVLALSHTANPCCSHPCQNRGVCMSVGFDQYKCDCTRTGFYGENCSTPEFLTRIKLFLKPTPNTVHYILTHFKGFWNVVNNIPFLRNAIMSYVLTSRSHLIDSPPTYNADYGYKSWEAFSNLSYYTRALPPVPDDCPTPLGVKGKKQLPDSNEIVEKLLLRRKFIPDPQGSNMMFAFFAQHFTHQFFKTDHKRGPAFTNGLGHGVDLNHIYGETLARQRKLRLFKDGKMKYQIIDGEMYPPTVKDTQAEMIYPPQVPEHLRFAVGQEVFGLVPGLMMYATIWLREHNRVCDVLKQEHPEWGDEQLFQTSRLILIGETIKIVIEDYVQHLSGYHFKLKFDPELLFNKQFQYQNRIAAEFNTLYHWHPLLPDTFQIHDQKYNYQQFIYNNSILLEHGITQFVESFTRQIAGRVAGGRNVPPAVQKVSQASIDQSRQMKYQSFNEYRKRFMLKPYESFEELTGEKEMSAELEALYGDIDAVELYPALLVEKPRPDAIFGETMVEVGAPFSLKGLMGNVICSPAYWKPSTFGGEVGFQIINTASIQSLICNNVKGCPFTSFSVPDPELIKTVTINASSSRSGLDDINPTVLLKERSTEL
Kind of data set: In vitro inhibition of Prostaglandin G/H synthase 2 in human whole blood assay. The data set is classed as tissue-based.

Prostaglandin G/H synthase 1, sequence (P23219 whole entry): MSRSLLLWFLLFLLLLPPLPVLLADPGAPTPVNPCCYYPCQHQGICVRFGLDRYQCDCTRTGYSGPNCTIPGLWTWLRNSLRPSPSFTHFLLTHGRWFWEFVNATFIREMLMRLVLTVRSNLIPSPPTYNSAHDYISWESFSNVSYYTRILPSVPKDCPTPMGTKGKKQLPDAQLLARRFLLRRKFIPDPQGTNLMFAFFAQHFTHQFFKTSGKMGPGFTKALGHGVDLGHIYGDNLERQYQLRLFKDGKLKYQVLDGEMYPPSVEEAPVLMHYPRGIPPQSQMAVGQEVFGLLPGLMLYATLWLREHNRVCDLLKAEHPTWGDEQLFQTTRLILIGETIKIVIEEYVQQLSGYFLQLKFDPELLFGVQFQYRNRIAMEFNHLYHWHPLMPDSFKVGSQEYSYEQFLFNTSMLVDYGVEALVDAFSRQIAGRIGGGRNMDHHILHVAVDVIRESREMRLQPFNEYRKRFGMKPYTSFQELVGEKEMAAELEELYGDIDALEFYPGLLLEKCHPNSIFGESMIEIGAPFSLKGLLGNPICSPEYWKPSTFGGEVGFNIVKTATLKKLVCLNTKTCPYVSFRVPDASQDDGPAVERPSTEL

With `CC(C)OC1=C(c2ccc(S(C)(=O)=O)cc2)C(C)(C)OC1=O`, the half-life in data set [1] is 64 h.

With `Cc1ccc(-c2ncc(Cl)cc2-c2ccc(S(C)(=O)=O)cc2)cn1` [ETORICOXIB], the IC50 in data set [2] is more than 100 µM. For the compound `CS(=O)(=O)c1ccc(-c2cc(Cl)cnc2-c2ccc(CO[C@@H]3O[C@@H](C(=O)O)[C@@H](O)[C@H](O)[C@@H]3O)nc2)cc1`, the IC50 was more than 33 µM in data set [3] and more than 100 µM in data set [2]. With `CS(=O)(=O)c1ccc(-c2cc(Cl)cnc2-c2ccc(CO)nc2)cc1`, the IC50 in data set [3] is more than 33 µM; in data set [2], more than 100 µM. For `Cc1ccc(-c2ncc(Cl)cc2-c2ccc(S(C)(=O)=O)cc2)c[n+]1[O-]` the same measures were 18 µM and more than 100 µM. With `CS(=O)(=O)c1ccc(-c2cc(Cl)cnc2-c2ccc(C(=O)O)nc2)cc1`, the results for the IC50 in data set [3] and in data set [2] were 21 µM and more than 100 µM, respectively.
